# Measurements published in article PMC10745061 (Marine Drugs, 2023).
# Entries after “also recorded” stand apart in the source; their conditions may differ. Where two headings read alike, the source gives them in different places. Where a SMILES comes first, the peptide text is derived from it. Bridges are numbered along the chain shown (N, C = ends).
# Key:
# [1] = tested on: human red blood cells (hRBCs); assay: Hemolysis, hemoglobin release assay; type: cell-based
# Protocol: Figure 3 Biological activity of the peptides towards human cells. (A) Hemolytic effect on human red blood cells (hRBCs) after 2 h incubation (the hemoglobin release assay). (B) Cytotoxicity towards transformed human embryonic kidney cells (HEK293T) after 16 h incubation (the resazurin assay).
# The hemolytic activity of the peptides was tested against the fresh suspension of human red blood cells (hRBC) using the hemoglobin release assay, as described previously. Two experiments were performed with hRBC from blood samples of independent donors. The quantitative data are represented as average means with standard deviations. The cytotoxic effect of the peptides was tested on transformed human embryonic kidney cells (HEK293T) using the resazurin assay. The technique is based on the ability of live cell dehydrogenases to reduce a blue resazurin to pink and fluorescent resorufin. A total of 10^4 cells per well in Dulbecco’s modified Eagle’s medium (DMEM/F12) supplemented with 10% FBS were placed into 96-well plates for 24 h in the CO2-incubator (5% CO2, 37 °C). […] Fluorescence of the formed resorufin was measured with the microplate reader AF2200 (Eppendorf, Germany) using the following channel: λExc = 535 nm, λEm = 595 nm. The fluorescence signal in the wells containing cells cultured without the peptides was assumed to represent 100% cell viability. […]
# [2] = RP-HPLC retention time; type: physicochemical; details: semi-preparative RP-HPLC, C18 column, linear gradient 5 to 80% (v/v) acetonitrile in water with 0.1% TFA within 50 min
# Protocol: Figure 2 Structure analysis of the novel BRICHOS-related peptides HfBRI-25 and HfBRI-28. (A) Characteristics of the obtained peptides. ^1 Mean Kyte–Doolittle hydrophobicity index (GRAVY) was calculated using the Expasy ProtParam tool. The maximum and minimum values of this index are +4.5 and −4.5 for poly-Ile and poly-Arg sequences, respectively. ^2 Percentage of hydrophobic amino acids was calculated using the APD3 database. ^3 Retention times were measured using semi-preparative reversed-phase high-performance liquid chromatography (RP-HPLC) on a C18 column with a linear gradient from 5 to 80% (v/v) acetonitrile in water containing 0.1% trifluoroacetic acid (TFA) within 50 min. ^4 Molecular masses were calculated by considering the presence of four Cys residues forming two disulfide bonds in the case of HfBRI-25. ^5 Molecular masses were determined experimentally using MALDI-TOF mass spectrometry. (B) Spatial structures of HfBRI-25 and HfBRI-28 were modeled using the AlphaFold algorithm (ColabFold server). The top-rated models, according to predicted local distance difference test (pLDDT) scores, were visualized by the PyMOL software. (C) The CD-spectra of the peptides in water or in the presence of 30 mM DPC micelles. (D) The CONTINLL program was used for CD data analysis. […]
# [3] = tested on: Escherichia coli ML-35p; details: salt-containing MHB supplemented with 5% FBS, compared with no FBS
# Source text: (§1) The results were expressed as the median values determined on the basis of at least three independent experiments performed in triplicate.
# [4] = tested on: E. coli ML-35p cytoplasmic membrane; assay: Cytoplasmic membrane permeabilization, ONPG hydrolysis; type: cell-based, Escherichia coli; details: at concentrations ≥ MIC values, PBS, 37 °C, ONPG 2.5 mM, OD405
# Protocol: Cationic AMPs perform their antibacterial function by damaging membrane integrity and/or specifically inhibiting intracellular processes. In this study, an effect of the obtained peptides on bacterial cytoplasmic membrane integrity was analyzed with the use of E. coli ML-35p, the strain constitutively expressing β-galactosidase and lacking the functional lactose permease which is necessary for the uptake of o-nitrophenyl-β-D-galactoside (ONPG). When β-galactosidase cleaves ONPG, β-D-galactose and o-nitrophenol are released. The latter is a chromogenic product with absorbance at 405 nm. […] Thus, the rapid membranolytic mode of action seems to be predominant for the HfBRI-28 peptide.
# Figure 4 Kinetics of changes in the E. coli ML35p cytoplasmic membrane permeability measured with the use of ONPG (OD405) hydrolysis caused by the examined peptides. Peptide concentrations (μM) are presented within the dashed box. […]
# To examine the ability of the peptides to affect the barrier function of inner membrane of Gram-negative bacteria, we used the E. coli ML-35p strain constitutively expressing cytoplasmic β-galactosidase but lacking lactose permease. The state of the E. coli ML-35p cytoplasmic membrane was assessed based on its permeability to chromogenic marker o-nitrophenyl-β-D-galactopyranoside (ONPG, AppliChem), which is the β-galactosidase substrate. […]
# [5] = tested on: E. coli K12 SBS 1936 biofilm; assay: Effect on established biofilm, MTT assay; type: cell-based, Escherichia coli; details: wide concentration range, 24 h pre-formed biofilm, 16 h treatment in LB, 37 °C
# Protocol: Bacterial biofilms play an important role in UTIs, being responsible for their persistence. Therefore, the eradication of mature biofilms is an extremely challenging task because high concentrations or doses of antibacterial agents are required. Here, the ability of HfBRI-25 to disrupt established biofilms was evaluated as a number of viable bacteria in biofilm using the MTT assay. According to our previous data, E. coli K12 SBS 1936 was chosen as a strong biofilm-producer that can form it in different media.
# E. coli K12 SBS1936 was grown in LB broth overnight at 37 °C and diluted in the same media to obtain 1 × 10^6 CFU/mL. A total of 100 μL of bacterial suspension was added to each well of the 96-well polystyrene plate and grown at 32 °C and 120 rpm for 24 h. The wells were washed twice with sterile water to remove non-adherent cells. In parallel, 100 μL of peptide or ciprofloxacin solutions, serially diluted in LB medium using a separate 96-well polystyrene plate, were added to each well with pre-formed biofilm and incubated at 37 °C and 180 rpm for 16 h. Biofilm viability was assessed by using the MTT reagent (Sigma). […] Absorbance of each well was measured at 570 nm. Bacterial survival was calculated as a percentage relative to samples without antimicrobial agent. […]
# [6] = tested on: E. coli ATCC 25922; details: BALB/c mice, n = 5, i.p. infection 10^6 CFU with 2.5% mucin; 10 mg/kg i.p. at 1 h and 4 h after infection; 7 days
# [7] = 25% human serum in PBS pH 7.4, 37 °C, RP-HPLC, ratio estimated from MALDI-TOF MS, two independent experiments
# [8] = 25% human serum in PBS (pH 7.4) from healthy donor; details: 37 °C, up to 24 h
# [9] = tested on: trypsin; assay: trypsin in 100 mM Tris/HCl buffer (pH 8.0); details: 37 °C, up to 16 h
# [10] = tested on: E. coli strains with the MCR-1-mediated colistin resistance; assay: MIC against strains with MCR-1-mediated colistin resistance; type: cell-based, Escherichia coli; details: two strains with MCR-1-mediated colistin resistance; medium not stated
# Source text: as §1
# [11] = tested on: E. coli MDR CI 1057; details: Mueller–Hinton broth supplemented with 0.9% NaCl, 37 °C
# Protocol: Resistance induction experiments were performed using the previously described method. Briefly, on day one, the overnight culture of wild-type bacteria was diluted with the 2× MH broth supplemented with 1.8% NaCl to reach a final cell concentration of 10^6 CFU/mL.
compound,measurement,setting,value
CC[C@H](C)[C@H](NC(=O)CNC(=O)[C@H](CCCCN)NC(=O)[C@H](Cc1c[nH]c2ccccc12)NC(=O)[C@@H](NC(=O)[C@H](CO)NC(=O)[C@H](CCCCN)NC(=O)[C@H](CC(C)C)NC(=O)[C@H](Cc1c[nH]c2ccccc12)NC(=O)CN)[C@@H](C)CC)C(=O)N[C@@H](CCCCN)C(=O)N[C@@H](CCCCN)C(=O)N[C@@H](C)C(=O)N[C@H](C(=O)N[C@@H](CCCCN)C(=O)N[C@@H](Cc1c[nH]c2ccccc12)C(=O)N[C@H](C(=O)N[C@@H](CC(C)C)C(=O)N[C@@H](CCCNC(=N)N)C(=O)N[C@@H](Cc1c[nH]cn1)C(=O)NCC(=O)N[C@H](C(=O)N[C@@H](Cc1ccc(O)cc1)C(=O)N[C@H](C(=O)N[C@@H](CCCNC(=N)N)C(=O)N[C@H](C(=O)N[C@H](C(=O)N[C@@H](Cc1ccccc1)C(=O)O)[C@@H](C)O)[C@@H](C)CC)C(C)C)C(C)C)C(C)C)C(C)C [HfBRI-28] (H-GWLKSIWKGIKKAVKWVLRHGVYVRITF-OH),Hemolytic effect on human red blood cells,[1],strong hemolytic effect
same,RP-HPLC Retention Time,[2],40.5 min
same,Increase in MIC in the presence of serum,[3],four- to eight-fold
same,Membrane damage,[4],effectively damaged membranes
"O=C(O)c1cn(C2CC2)c2cc(N3CCNCC3)c(F)cc2c1=O [ciprofloxacin, reference compound]",Anti-biofilm efficiency (bacterial viability inside established biofilm),[5],high efficiency at a wide concentration range
same,Survival / therapeutic efficacy,[6],survival of all mice
"CC[C@H](C)[C@@H]1NC(=O)[C@H](Cc2c[nH]c3ccccc23)NC(=O)[C@H](C(C)C)NC(=O)[C@@H]2CSSC[C@H](NC(=O)[C@H](CCCNC(=N)N)NC(=O)[C@H](CCCNC(=N)N)NC(=O)[C@H](C(C)C)NC(=O)[C@H](CCCNC(=N)N)NC(=O)[C@H](CCCNC(=N)N)NC(=O)CNC(=O)[C@H](CC(N)=O)NC(=O)[C@H](C(C)C)NC(=O)[C@H](CO)NC1=O)C(=O)N[C@@H](Cc1c[nH]c3ccccc13)C(=O)NCC(=O)N[C@@H](CO)C(=O)NCC(=O)N[C@H](C(=O)O)CSSC[C@H](NC(=O)CNC(=O)[C@@H](N)CCCNC(=N)N)C(=O)N[C@@H](Cc1ccccc1)C(=O)N2 [form “b”] (H-RGCFCVWISVNGRRVRRCWGSGC-OH; disulfide 3-23, 5-18; N-terminus and C-terminus assumed)","a/b (%), ratio of the peptide forms in serum",[7]; time 0 h,0%
same,"a/b (%), ratio of the peptide forms in serum",[7]; time 1 h,61%
same,"a/b (%), ratio of the peptide forms in serum",[7]; time 3 h,94%
same,"a/b (%), ratio of the peptide forms in serum",[7]; time 24 h,100%
SPRGCFCVWISVNGRRVRRCWGSGC,cleaved bond,[8],"Pro2-R3, major, 1 h"
same,fragment found,[9],"(4–16), major; also recorded: (19–25), major"
polymyxin B [reference compound],MIC against MCR-1 colistin-resistant strains,[10],2 µM
same,Initial MIC value before resistance selection,[11],0.125 µM
